According to patent US20230346272A1 (priority 2021, published 2023):

Experiment: Differential Pulse Voltammetry (DPV) with microneedle sensor array, oxycodone and metabolites (FIG. 10)
Type: physicochemical
Conditions: applied voltages from 0 to 1.2V
In the case of `COc1ccc2c3c1O[C@H]1C(=O)CC[C@@]4(O)[C@@H](C2)NCC[C@]314` [noroxycodone], the “current peak (DPV)” value is reported as “about 165 μA” and the “voltage of the current peak (DPV)” value is reported as “about 0.95 V”.
For `COc1ccc2c3c1O[C@H]1C(=O)CC[C@@]4(O)[C@@H](C2)N(C)CC[C@]314` [oxycodone], the “current peak (DPV)” value was “about 100 μA” and the “voltage of the current peak (DPV)” value was “about 0.75 V”.
For `CN1CC[C@]23c4c5ccc(O)c4O[C@H]2C(=O)CC[C@@]3(O)[C@H]1C5` [oxymorphone], the “current peak (DPV)” value was “about 30 μA” and the “voltage of the current peak (DPV)” value was “about 0.45 V”.
